What all share (format): biochemical
Assay [1] deals with recombinant PI3K (p110δ/p85α) (Homo sapiens, UniProt O00329). Description: PI3Kδ ADP-Glo kinase assay. The conditions noted are these: read-out: PI3Kδ Enzyme activity IC50. A digest of the protocol:
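ADP-Glo luminescence with recombinant p110δ/p85α and lipid kinase substrate. Compound serial dilutions preincubated 0.5 hr, ATP added, reaction 1 hr at room temperature, then ATP depletion and detection steps. IC50 from a four-parameter logistic fit of residual activity.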
(ADP-Glo first removes unused ATP, then detects ADP through luciferase.)

In assay [2] the target is recombinant PI3K (p110α/p85α) (Homo sapiens, UniProt P42336). Description: PI3Kα ADP-Glo kinase assay. Conditions: read-out: PI3Kα Enzyme activity IC50.
Assay [3] has as its target PI3K (p110β/p85α) (Homo sapiens, UniProt P42338). Description: PI3Kβ ADP-Glo kinase assay. The conditions noted are these: read-out: PI3Kβ Enzyme activity IC50.
Assay [4] concerns the target PI3K (p110γ) (Homo sapiens, UniProt P48736). As to the kind of experiment: PI3Kγ ADP-Glo kinase assay. Conditions: read-out: PI3Kγ Enzyme activity IC50.

Each structure is given as a SMILES string.

One may read the IC50 as the concentration that gives 50% inhibition.

Sequence of recombinant PI3K (p110α/p85α) (P42336 whole entry): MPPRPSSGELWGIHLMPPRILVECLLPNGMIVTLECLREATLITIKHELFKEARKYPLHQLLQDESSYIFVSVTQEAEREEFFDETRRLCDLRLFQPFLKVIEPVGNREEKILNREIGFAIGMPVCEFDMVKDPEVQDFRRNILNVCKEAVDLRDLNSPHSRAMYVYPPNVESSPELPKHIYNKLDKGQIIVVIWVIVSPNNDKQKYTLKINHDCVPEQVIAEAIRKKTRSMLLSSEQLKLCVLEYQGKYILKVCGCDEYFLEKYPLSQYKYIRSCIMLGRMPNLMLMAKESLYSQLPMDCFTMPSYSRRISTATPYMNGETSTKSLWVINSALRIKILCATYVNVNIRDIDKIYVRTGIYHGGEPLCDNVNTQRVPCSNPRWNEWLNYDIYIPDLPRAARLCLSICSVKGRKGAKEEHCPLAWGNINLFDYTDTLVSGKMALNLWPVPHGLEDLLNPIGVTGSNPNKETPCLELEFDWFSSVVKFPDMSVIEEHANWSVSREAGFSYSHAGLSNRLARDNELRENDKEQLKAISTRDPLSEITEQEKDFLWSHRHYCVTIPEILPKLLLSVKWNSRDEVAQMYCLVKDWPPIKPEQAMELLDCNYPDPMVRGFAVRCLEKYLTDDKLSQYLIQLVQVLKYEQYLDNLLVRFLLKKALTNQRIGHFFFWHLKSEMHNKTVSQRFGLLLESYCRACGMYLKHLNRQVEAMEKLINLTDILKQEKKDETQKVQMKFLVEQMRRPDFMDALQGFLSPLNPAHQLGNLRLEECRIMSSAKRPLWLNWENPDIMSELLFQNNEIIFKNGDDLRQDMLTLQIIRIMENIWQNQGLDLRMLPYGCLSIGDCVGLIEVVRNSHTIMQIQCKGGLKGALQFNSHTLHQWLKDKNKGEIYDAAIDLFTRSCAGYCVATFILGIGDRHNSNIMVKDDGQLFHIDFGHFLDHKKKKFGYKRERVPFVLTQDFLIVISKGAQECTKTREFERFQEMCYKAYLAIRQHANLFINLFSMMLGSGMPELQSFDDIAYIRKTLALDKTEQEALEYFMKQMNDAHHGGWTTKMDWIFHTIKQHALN
Sequence of recombinant PI3K (p110α/p85α) (P27986 whole entry partner): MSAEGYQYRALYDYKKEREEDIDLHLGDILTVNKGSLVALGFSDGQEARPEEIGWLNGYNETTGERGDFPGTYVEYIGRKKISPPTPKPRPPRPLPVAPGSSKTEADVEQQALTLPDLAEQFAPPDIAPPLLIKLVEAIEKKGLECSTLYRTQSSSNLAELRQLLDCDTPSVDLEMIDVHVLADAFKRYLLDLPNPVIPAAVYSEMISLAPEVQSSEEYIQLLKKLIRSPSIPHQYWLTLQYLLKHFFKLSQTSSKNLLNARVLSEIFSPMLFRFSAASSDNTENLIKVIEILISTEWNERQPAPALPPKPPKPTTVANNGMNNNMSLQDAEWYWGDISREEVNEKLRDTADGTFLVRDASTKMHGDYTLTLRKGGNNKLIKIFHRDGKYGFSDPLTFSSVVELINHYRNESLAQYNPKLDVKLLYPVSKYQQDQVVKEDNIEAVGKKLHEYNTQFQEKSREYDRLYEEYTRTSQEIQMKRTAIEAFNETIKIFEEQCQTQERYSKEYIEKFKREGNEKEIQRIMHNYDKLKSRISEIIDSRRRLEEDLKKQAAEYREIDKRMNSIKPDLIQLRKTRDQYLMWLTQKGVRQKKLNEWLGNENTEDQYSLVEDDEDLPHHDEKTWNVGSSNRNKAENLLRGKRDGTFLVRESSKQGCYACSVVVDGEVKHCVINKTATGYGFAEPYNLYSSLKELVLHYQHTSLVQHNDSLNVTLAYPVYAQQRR
Sequence of PI3K (p110γ) (P48736 whole entry): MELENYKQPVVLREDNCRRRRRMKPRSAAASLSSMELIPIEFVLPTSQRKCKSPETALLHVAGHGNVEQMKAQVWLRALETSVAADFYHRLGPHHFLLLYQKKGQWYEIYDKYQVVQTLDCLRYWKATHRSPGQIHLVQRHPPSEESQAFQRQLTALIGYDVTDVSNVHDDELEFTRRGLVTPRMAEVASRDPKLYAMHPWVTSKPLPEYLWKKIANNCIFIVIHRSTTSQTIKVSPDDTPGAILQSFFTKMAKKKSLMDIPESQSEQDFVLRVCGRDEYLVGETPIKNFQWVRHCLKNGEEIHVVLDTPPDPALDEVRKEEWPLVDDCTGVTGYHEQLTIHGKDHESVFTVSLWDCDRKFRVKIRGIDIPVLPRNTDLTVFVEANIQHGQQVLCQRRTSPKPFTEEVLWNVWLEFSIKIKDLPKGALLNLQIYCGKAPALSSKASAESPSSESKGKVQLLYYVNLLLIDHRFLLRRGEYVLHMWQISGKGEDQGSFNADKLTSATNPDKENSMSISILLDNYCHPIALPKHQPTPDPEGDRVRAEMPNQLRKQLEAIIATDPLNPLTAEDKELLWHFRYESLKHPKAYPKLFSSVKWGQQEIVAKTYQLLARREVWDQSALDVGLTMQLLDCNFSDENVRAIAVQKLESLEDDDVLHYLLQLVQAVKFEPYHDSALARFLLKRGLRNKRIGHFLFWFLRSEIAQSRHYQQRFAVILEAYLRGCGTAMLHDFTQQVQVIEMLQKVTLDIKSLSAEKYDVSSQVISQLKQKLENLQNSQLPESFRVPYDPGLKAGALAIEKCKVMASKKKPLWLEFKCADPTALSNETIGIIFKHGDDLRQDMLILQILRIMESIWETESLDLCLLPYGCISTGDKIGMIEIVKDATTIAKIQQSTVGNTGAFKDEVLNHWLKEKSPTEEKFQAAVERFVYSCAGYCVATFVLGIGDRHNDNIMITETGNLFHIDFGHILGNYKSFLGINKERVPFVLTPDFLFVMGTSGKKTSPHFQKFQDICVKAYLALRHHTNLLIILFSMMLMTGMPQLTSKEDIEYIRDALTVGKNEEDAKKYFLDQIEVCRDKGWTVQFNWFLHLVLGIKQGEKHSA
Sequence of recombinant PI3K (p110δ/p85α) (O00329 whole entry): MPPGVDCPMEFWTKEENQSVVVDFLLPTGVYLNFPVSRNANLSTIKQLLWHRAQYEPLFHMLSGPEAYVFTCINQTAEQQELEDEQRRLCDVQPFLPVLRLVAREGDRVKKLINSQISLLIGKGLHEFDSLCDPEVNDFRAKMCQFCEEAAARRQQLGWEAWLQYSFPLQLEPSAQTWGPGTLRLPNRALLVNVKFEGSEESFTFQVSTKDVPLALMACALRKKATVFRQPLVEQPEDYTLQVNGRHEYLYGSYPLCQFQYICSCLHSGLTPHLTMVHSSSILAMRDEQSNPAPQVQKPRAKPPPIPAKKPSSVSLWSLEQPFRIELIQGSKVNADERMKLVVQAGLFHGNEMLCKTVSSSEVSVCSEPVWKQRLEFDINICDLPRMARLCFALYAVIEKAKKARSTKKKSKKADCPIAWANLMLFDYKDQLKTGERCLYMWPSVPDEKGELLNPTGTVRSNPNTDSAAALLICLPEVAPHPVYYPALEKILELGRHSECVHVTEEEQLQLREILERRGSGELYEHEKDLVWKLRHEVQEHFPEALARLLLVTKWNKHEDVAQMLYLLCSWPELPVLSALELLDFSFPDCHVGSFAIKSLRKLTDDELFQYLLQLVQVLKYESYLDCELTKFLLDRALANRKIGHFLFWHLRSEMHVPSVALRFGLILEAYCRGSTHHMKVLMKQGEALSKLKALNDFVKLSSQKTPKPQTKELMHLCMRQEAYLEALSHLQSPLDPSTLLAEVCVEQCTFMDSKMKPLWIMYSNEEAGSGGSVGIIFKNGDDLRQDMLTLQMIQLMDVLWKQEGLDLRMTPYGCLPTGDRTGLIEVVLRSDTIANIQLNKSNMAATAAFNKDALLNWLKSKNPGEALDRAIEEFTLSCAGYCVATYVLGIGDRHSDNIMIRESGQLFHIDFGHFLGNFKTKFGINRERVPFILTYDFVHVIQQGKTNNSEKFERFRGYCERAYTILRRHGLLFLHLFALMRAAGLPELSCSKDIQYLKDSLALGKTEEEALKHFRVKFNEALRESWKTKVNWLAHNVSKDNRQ
Sequence of recombinant PI3K (p110δ/p85α) (P27986 whole entry partner): as the sequence (P27986 whole entry partner) above
Sequence of PI3K (p110β/p85α) (P42338 whole entry): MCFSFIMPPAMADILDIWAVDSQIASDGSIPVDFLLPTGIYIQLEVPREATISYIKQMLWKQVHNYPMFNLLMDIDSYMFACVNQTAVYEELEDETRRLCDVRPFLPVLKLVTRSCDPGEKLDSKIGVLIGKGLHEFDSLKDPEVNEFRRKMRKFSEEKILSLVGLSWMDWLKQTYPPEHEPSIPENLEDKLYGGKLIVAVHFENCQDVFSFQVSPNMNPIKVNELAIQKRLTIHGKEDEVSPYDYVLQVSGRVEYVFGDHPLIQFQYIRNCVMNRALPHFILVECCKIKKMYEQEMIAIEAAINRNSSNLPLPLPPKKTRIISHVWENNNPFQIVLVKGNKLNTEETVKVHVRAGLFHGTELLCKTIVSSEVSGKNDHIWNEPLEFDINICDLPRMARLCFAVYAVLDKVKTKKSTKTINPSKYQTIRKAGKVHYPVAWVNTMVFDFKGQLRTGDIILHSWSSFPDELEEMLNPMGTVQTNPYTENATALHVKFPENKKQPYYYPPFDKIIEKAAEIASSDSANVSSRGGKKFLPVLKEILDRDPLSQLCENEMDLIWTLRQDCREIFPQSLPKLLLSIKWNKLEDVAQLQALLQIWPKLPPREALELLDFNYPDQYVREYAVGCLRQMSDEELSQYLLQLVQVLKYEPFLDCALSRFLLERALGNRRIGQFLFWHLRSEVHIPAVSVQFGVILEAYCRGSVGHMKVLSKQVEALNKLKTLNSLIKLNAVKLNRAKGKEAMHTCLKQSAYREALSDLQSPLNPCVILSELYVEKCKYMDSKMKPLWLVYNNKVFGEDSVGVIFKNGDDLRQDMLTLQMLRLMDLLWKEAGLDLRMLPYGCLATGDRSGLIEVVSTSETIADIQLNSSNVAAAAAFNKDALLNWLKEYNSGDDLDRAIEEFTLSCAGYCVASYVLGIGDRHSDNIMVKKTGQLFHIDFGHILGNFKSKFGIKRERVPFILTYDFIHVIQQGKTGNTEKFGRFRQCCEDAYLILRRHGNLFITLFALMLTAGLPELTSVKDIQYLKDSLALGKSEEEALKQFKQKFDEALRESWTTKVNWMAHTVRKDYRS
Sequence of PI3K (p110β/p85α) (P27986 whole entry partner): as the sequence (P27986 whole entry partner) above

As for `CCOc1cc(C)c(Cl)cc1C(C)c1nc(Br)c2c(N)nccn12` (stereo not shown) [Compound 50, 1-bromo-3-(1-(5-chloro-2-ethoxy-4-methylphenyl)ethyl)imidazo[1,5-a]pyrazin-8-amine], the IC50 was 17 nM in assay [1], 36000 nM in assay [2], 670 nM in assay [3] and 2600 nM in assay [4].
The corresponding values for `Cc1nc([C@@H](C)c2cc(Cl)c(F)c(-c3ccc(C(F)(F)F)nc3)c2OC(C)C)n2ccnc(N)c12` [Compound 58, (S)-3-(1-(5-chloro-4-fluoro-2-isopropoxy-3-(6-(trifluoromethyl)pyridin-3-yl)phenyl)ethyl)-1-methylimidazo[1,5-a]pyrazin-8-amine] are 5.6 nM, 14000 nM, 17000 nM and 13000 nM.
The corresponding values for `CC(C)Oc1c(C(C)c2nc(Cl)c3c(N)nccn23)cc(Cl)c(F)c1C1CNC(=O)C1` (stereo not shown) [Compound 48, 4-(3-(1-(8-amino-1-chloroimidazo[1,5-a]pyrazin-3-yl)ethyl)-5-chloro-6-fluoro-2-isopropoxyphenyl)pyrrolidin-2-one] are 0.42 nM, 540 nM, 580 nM and 530 nM.
Take `Cc1nc(C(C)c2cc(Cl)c(F)c(-c3ccc(C#N)nc3)c2OC(C)C)n2ccnc(N)c12` (stereo not shown) [Compound 59, 5-(3-(1-(8-amino-1-methylimidazo[1,5-a]pyrazin-3-yl)ethyl)-5-chloro-6-fluoro-2-isopropoxyphenyl)picolinonitrile]: the 50% inhibitory concentration (IC50) in assay [1] worked out at 2.5 nM; in assay [2], 10000 nM; in assay [3], 3500 nM; in assay [4], 6300 nM.
The matching figures for `CC(C)Oc1c(C(C)c2nc(Cl)c3c(N)nccn23)cc(Cl)c(F)c1C1CNC(=O)C1` (single isomer, unassigned) [Compound 48A, 4-(3-(1-(8-amino-1-chloroimidazo[1,5-a]pyrazin-3-yl)ethyl)-5-chloro-6-fluoro-2-isopropoxyphenyl)pyrrolidin-2-one]: 0.4 nM, 4800 nM, 440 nM and 800 nM.
The corresponding values for `CCOc1c([C@H](C)c2nc(Cl)c3c(N)nccn23)cc(Cl)c(C)c1-c1ccc(C(=O)O)nc1` [Compound 12] are 1.7 nM, 1300 nM, 870 nM and 67 nM.
Turning to `Cc1nc([C@@H](C)c2cc(Cl)c(F)c(-c3ccc(C(N)=NO)nc3)c2OC(C)C)n2ccnc(N)c12` [Compound 60], the IC50 stood at 1.6 nM in assay [1], 4300 nM in assay [2], 4200 nM in assay [3] and 2800 nM in assay [4].
The matching figures for `CC(C)Oc1c([C@H](C)c2nc(Cl)c3c(N)nccn23)cc(Cl)c(F)c1-c1ccc(C(=O)O)nc1` [Compound 18A]: 0.56 nM, 4600 nM, 190 nM and 160 nM.
The corresponding values for `CCOc1c(C(C)c2nc(Cl)c3c(N)nccn23)cc(Cl)c(C)c1N1CCOCC1` (stereo not shown) [Compound 51, 1-chloro-3-(1-(5-chloro-2-ethoxy-4-methyl-3-morpholinophenyl)ethyl)imidazo[1,5-a]pyrazin-8-amine] are 1.6 nM, 2900 nM, 2700 nM and 1700 nM.
The corresponding values for `CCOc1c(C(C)c2nc(Cl)c3c(N)nccn23)cc(Cl)c(C)c1-c1ccc(OC)cc1` (stereo not shown) [Compound 45, 1-chloro-3-(1-(5-chloro-2-ethoxy-4′-methoxy-6-methyl-[1,1′-biphenyl]-3-yl)ethyl)imidazo[1,5-a]pyrazin-8-amine] are 17 nM, 1100 nM, 930 nM and 1200 nM.
Consider `Cc1nc([C@@H](C)c2cc(Cl)c(F)c(-c3ccc(C(=O)N4CCC[C@H]4C(=O)O)nc3)c2OC(C)C)n2ccnc(N)c12` [Compound 67, (5-(3-((S)-1-(8-amino-1-methylimidazo[1,5-a]pyrazin-3-yl)ethyl)-5-chloro-6-fluoro-2-isopropoxyphenyl)picolinoyl)-L-proline], for which the concentration for half-maximal inhibition (IC50) in assay [1] was 0.47 nM; in assay [2], 5200 nM; in assay [3], 460 nM; in assay [4], 1200 nM.
For the compound `CC(c1cc(Cl)c(C#N)c(=O)n1-c1ccccc1)n1cc(Br)c2c(N)ncnc21` (stereo not shown) [Compound 54, 6-(1-(4-amino-5-bromo-7H-pyrrolo[2,3-d]pyrimidin-7-yl)ethyl)-4-chloro-2-oxo-1-phenyl-1,2-dihydropyridine-3-carbonitrile], the IC50 in assay [1] worked out at 15 nM; in assay [2], 29000 nM; in assay [3] it was 1700 nM; in assay [4], 4200 nM.
In the case of `Cc1nc(C(C)c2cc(Cl)c(F)c(-c3ccc(C#N)nc3)c2OC(C)C)n2ccnc(N)c12` (single isomer, unassigned) [Compound 59A, 5-(3-(1-(8-amino-1-methylimidazo[1,5-a]pyrazin-3-yl)ethyl)-5-chloro-6-fluoro-2-isopropoxyphenyl)picolinonitrile], the half-maximal inhibitory concentration (IC50) in assay [1] came out at 1.2 nM; in assay [2] it was 6300 nM; in assay [3] it was 1400 nM; in assay [4] it was 2700 nM.
The matching figures for `Cc1c(Cl)cc(C(C)c2nc(Br)c3c(N)nccn23)c(OC(C)C)c1-c1ccc(C(F)(F)F)nc1` (stereo not shown) [Compound 38, 1-bromo-3-(1-(5-chloro-2-isopropoxy-4-methyl-3-(6-(trifluoromethyl)pyridin-3-yl)phenyl)ethyl)imidazo[1,5-a]pyrazin-8-amine]: 19 nM, more than 200000 nM, 30000 nM and 2800 nM.
On to `CCOc1c([C@H](C)c2nc(Cl)c3c(N)nccn23)cc(Cl)c(F)c1-c1ccc(C(F)(F)F)nc1` [Compound 41A], for which the IC50 in assay [1] is 2.1 nM; in assay [2] it was 2200 nM; in assay [3] it was 1200 nM; in assay [4], 730 nM.
Regarding `CCOc1c(C(C)c2nc(Cl)c3c(N)nccn23)cc(Cl)c(C)c1C1CNC(=O)C1` (stereo not shown) [Compound 46, 4-(3-(1-(8-amino-1-chloroimidazo[1,5-a]pyrazin-3-yl)ethyl)-5-chloro-2-ethoxy-6-methylphenyl)pyrrolidin-2-one], the half-inhibitory concentration (IC50) in assay [1] worked out at 0.7 nM; in assay [2], 5600 nM; in assay [3], 470 nM; in assay [4], 920 nM.
The matching figures for `Cc1nc([C@@H](C)c2cc(Cl)c(F)c(-c3ccc(C(=O)N4CCC(O)CC4)nc3)c2OC(C)C)n2ccnc(N)c12` [Compound 61, (S)-(5-(3-(1-(8-amino-1-methylimidazo[1,5-a]pyrazin-3-yl)ethyl)-5-chloro-6-fluoro-2-isopropoxyphenyl)pyridin-2-yl)(4-hydroxypiperidin-1-yl)methanone]: 0.58 nM, 2900 nM, 6100 nM and 3800 nM.
Consider `Cc1nc([C@@H](C)c2cc(Cl)c(F)c(-c3ccc(C(=O)NC4(C(=O)O)CC4)nc3)c2OC(C)C)n2ccnc(N)c12` [Compound 68, (S)-1-(5-(3-(1-(8-amino-1-methylimidazo[1,5-a]pyrazin-3-yl)ethyl)-5-chloro-6-fluoro-2-isopropoxyphenyl)picolinamido)cyclopropane-1-carboxylic Acid], for which the IC50 in assay [1] is 0.33 nM; in assay [2], 3400 nM; in assay [3] it was 400 nM; in assay [4], 960 nM.
In the case of `CCOc1c(C(C)c2nc(Cl)c3c(N)nccn23)cc(Cl)c(F)c1-c1ccc(C(F)(F)F)nc1OC` (stereo not shown) [Compound 43, 1-chloro-3-(1-(5-chloro-2-ethoxy-4-fluoro-3-(2-methoxy-6-(trifluoromethyl)pyridin-3-yl)phenyl)ethyl)imidazo[1,5-al]pyrazin-8-amine], the IC50 was 59 nM in assay [1], more than 50000 nM in assay [2], more than 50000 nM in assay [3] and more than 50000 nM in assay [4].
For the compound `CC(C)Oc1c(C(C)c2nc(Cl)c3c(N)nccn23)cc(Cl)c(Cl)c1-c1ccc(C(F)(F)F)nc1` (stereo not shown) [Compound 37, 1-chloro-3-(1-(4,5-dichloro-2-isopropoxy-3-(6-(trifluoromethyl)pyridin-3-yl)phenyl)ethyl)imidazo[1,5-a]pyrazin-amine], the IC50 worked out at 4.2 nM in assay [1], 11000 nM in assay [2], 1900 nM in assay [3] and 900 nM in assay [4].
The corresponding values for `CCOc1c(C(C)c2nc(C)c3c(N)nccn23)cc(Cl)c(C)c1-c1ccc(C(F)(F)F)nc1` (stereo not shown) [Compound 32, 3-(1-(5-chloro-2-ethoxy-4-methyl-3-(6-(trifluoromethyl)pyridin-3-yl)phenyl)ethyl)-1-methylimidazo[1,5-a]pyrazin-8-amine] are 8.5 nM, 7400 nM, 3500 nM and 2100 nM.
The corresponding values for `Cc1nc([C@@H](C)c2cc(Cl)c(F)c(-c3ccc(C(=O)N4CC(O)C4)nc3)c2OC(C)C)n2ccnc(N)c12` [Compound 63, (S)-(5-(3-(1-(8-amino-1-methylimidazo[1,5-a]pyrazin-3-yl)ethyl)-5-chloro-6-fluoro-2-isopropoxyphenyl)pyridin-2-yl)(3-hydroxyazetidine-1-yl)methanone] are 0.56 nM, 2600 nM, 2300 nM and 2400 nM.
